Measured values: PMC5441137, “Positively Selected Sites at HCMV gB Furin Processing Region and Their Effects in Cleavage Efficiency” (Frontiers in Microbiology, 2017)

Columns and labels:
[1] = target: T1, recombinant human furin (Homo sapiens, UniProt P09958); assay: FRET peptide enzymatic kinetics assay of cleavage by furin; format: biochemical; settings: for Km / kcat: FRET peptide as furin substrate, 10 mM MES, 1 mM CaCl2, pH 7.0, 37°C, fluorescence λex 320 nm/λem 420 nm, non-linear Michaelis-Menten fit (Grafit)
T1 construct: made in house
T1 sequence (P09958 108-794): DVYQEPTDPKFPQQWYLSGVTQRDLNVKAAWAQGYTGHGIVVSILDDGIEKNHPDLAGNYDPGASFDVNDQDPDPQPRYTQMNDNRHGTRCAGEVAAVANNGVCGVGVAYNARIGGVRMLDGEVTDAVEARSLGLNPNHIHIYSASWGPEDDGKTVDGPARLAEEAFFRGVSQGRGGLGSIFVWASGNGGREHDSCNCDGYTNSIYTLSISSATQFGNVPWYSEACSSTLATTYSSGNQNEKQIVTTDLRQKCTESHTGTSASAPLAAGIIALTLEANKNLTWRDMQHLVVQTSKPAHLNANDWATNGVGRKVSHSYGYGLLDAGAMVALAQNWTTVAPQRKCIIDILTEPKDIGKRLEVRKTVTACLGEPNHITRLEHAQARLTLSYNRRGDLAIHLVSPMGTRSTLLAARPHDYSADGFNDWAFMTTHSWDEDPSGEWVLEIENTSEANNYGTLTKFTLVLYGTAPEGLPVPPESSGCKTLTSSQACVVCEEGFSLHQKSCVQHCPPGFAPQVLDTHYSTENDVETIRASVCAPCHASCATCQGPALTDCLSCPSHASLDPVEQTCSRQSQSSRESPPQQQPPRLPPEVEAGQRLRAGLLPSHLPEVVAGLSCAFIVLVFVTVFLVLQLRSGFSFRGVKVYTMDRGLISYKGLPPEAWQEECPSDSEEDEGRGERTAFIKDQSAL
Method: Recombinant human furin was expressed and purified as previously described ([Kacprzak et al., 2004]). The enzyme concentration was determined by active site titration using the inhibitor decanoyl-RVKR-CMK inhibitor in 10 mM MES buffer, 1 mM CaCl2, pH 7.0 and the substrate Abz-GIRRKRSVSHQ-EDDnp.
Seven synthetic peptides were obtained by solid-phase strategy, as previously described ([Izidoro et al., 2010]) using the Fmoc-procedure in an automated multiple solid-phase peptide synthesizer (PSSM 8 system, Shimadzu, Japan) ([Hirata et al., 1995]; [Korkmaz et al., 2008]). Peptides were prepared in dimethylformamide and stock concentrations measured spectrophotometrically at 365 nm (e = 17,300 M^-1.cm^-1). The quantum yields of the FRET peptides and the products of their hydrolysis were unchanged in all tested conditions.
The FRET peptides were assayed in 10 mM MES, 1 mM CaCl2, pH 7.0, using a F-2500 spectrofluorimeter (Hitachi, Tokyo, Japan), at 37°C ([Izidoro et al., 2010]), as previously described. Fluorescence changes were monitored continuously at λex = 320 nm and λem = 420 nm. The enzyme concentrations for initial rate determinations were chosen at a level intended to hydrolyze less than 5% of the amount of added substrate over the time course of data collection.
Three kinetic parameters from the Michaelis-Menten model were analyzed, representing enzyme-substrate (km), the catalysis constant (kcat) and the kcat/km ratio. The kinetic parameters km and kcat were calculated by non-linear regression using Grafit software (Erithacus Software, Horley, Surrey, UK). km, kcat, and standard errors (less than 10%) were calculated using Grafit software (v.5.0.13, Erithacus Software, Horley, Surrey, UK) with a non-linear least squares Michaelis-Menten fit associated with a matrix invertion fitting routine to refine kcat, km and allowing estimation of the errors. Standard deviations greater than 10% are due to low values obtained.

[2] = target: T1, recombinant human furin; assay: Analysis of furin-processed FRET substrates by LC-MS / HPLC / Maldi-TOF; format: biochemical; settings: FRET peptide 5 μM, spectrofluorimeter and Maldi-TOF after 2 h of incubation with furin
Description: In order to see if the mutations have an influence in cleavage, peptides containing the original reference sequences and their derivative containing positive selected mutations, were synthesized and tested against recombinant human furin. All substrates were cleaved after the double basic residues RR or KR as analyzed by Liquid Chromatography mass spectrometry (LC-MS) (Supplementary Figures S1–S3). The kcat/km ratio relates to the catalytic efficiency, meaning how fast in […] the enzyme reacts with the substrate once it encounters it. As a control, a peptide which contains a mutation previously shown to interfere with furin cleavage ([Strive et al., 2002]) was tested and as expected no cleavage was observed (Table 2 and Supplementary Figure S3).
Supplementary file Image_1.TIF: FIGURE S1 HPLC of furin-processed FRET substrates. […] Substrate and products were followed by fluorescence (Abz, ex320 nm; em420 nm) quenching (Eddnp, uv = 365 nm) indicating single cleavage site for all tested sequences. (A) gB3_22. (B) gB_20. (C) gB3_26 (D) gB2_18. (E) gB2_13. (F) gB2_19. Click here for additional data file.
Supplementary file Image_2.TIF: FIGURE S2 Mass spectra of furin-processed substrates. […] (A) gB3_22 substrate and products (1549.3, 678.7, and 888.7 Da). (B) gB2_13 (1634.4, 706.7, and 945.7 Da). (C) gB_20 (1604.3, 706.7, and 915.6 Da). […]

[3] = versus genotype 3 reference peptide (gB3_22)

RTRR↓STSDNNT [gB2_13]
Km [1]: 3.19 µM | kcat [1]: 2.24 s⁻¹

RTRR↓SASDNNT [gB2_20, FRET peptide of gB genotype 2 with the positively selected mutation T462A]
Km [1]: 0.69 µM | kcat [1]: 4.06 s⁻¹

RTRR↓SMSDNNT [gB2_18, FRET peptide of gB genotype 2 with the positively selected mutation T462M]
Km [1]: 1.65 µM | kcat [1]: 3.01 s⁻¹

RTKR↓DTGNTTT [gB3_26, FRET peptide of gB genotype 3 with the positively selected mutation S461D]
Km [1]: 0.43 µM | kcat [1]: 1.89 s⁻¹ | decrease in kcat/km ratio compared to the reference sequence [1, 3]: threefold | increase in the km compared to the reference sequence [1, 3]: 20 times

RTRR↓SRSDNNT [gB2_19, FRET peptide of gB genotype 2 with the positively selected mutation T462R]
Km [1]: 0.23 µM | kcat [1]: 5.06 s⁻¹ | increase of the kcat/km ratio compared to the reference sequence ([1]; versus genotype 2 reference sequence (gB2_13)): 31 fold

ATRASTSDNNT
processing by furin (cleavage observed or not) [2]: not processed by furin

RTKR↓STGNTTT [gB3_22]
Km [1]: 0.02 µM | kcat [1]: 0.25 s⁻¹
